From patent US7109193B2, “Tricyclic diazepines tocolytic oxytocin receptor antagonists” (Wyeth, priority 2001, dated 2006)

Target: T1, human vasopressin V2 receptor subtype (Homo sapiens, UniProt P30518)
T1 construct: host or cells: CHO cells (pZeoSV vector)
Test: Vasopressin binding in Chinese Hamster Ovary cell membranes expressing human vasopressin V2 subtype receptors
Details: 100 nM, CHO cell membranes, [3H]arginine vasopressin, values without parentheses
Outline: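 Radioligand displacement on membranes from CHO cells stably expressing human V2 receptor, 25 to 50 μg protein/well, in 50 mM Tris-HCl pH 7.4 with MgCl2, BSA and protease inhibitors. [^3H]arginine vasopressin (8 nM working solution) incubated 60 min at room temperature; bound label measured by filtration and scintillation counting.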

T1 sequence (P30518 whole entry): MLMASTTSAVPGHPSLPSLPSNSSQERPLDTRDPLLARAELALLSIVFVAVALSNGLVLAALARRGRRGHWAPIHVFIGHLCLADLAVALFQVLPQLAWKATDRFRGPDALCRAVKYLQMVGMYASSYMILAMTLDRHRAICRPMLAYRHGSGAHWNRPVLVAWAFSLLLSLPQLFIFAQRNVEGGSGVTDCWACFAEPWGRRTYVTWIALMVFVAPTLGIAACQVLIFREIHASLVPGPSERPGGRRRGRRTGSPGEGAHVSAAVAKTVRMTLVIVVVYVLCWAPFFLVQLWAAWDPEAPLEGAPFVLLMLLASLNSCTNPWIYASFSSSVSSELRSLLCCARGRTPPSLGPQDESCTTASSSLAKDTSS

| Compound | inhibition at 0.1 µM [%] |
| --- | --- |
| COc1cc(-c2ccccc2C)c(Cl)cc1C(=O)N1Cc2ccc(C(=O)N(C)C3CCN(C)CC3)n2Cc2ccccc21 [Example 180, 10-[(6-Chloro-3-methoxy-2′-methyl[1,1′-biphenyl]-4-yl)carbonyl]-N-methyl-N-(1-methyl-4-piperidinyl)-10,11-dihydro-5H-pyrrolo[2,1-c][1,4]benzodiazepine-3-carboxamide] | 14 |
| COc1cc(C(=O)N2Cc3ccc(C(=O)N(C)C4CCN(C)CC4)n3Cc3ccccc32)ccc1-c1cccc2ccccc12 [Example 182, 10-[3-Methoxy-4-(1-naphthyl)benzoyl]-N-methyl-N-(1-methyl-4-piperidinyl)-10,11-dihydro-5H-pyrrolo[2,1-c][1,4]benzodiazepine-3-carboxamide] | 35 |
| COc1ccccc1-c1ccc(C(=O)N2Cc3ccc(C(=O)N(C)C4CCN(C)CC4)n3Cc3ccccc32)cc1OC [Example 183, 10-[(2,2′-Dimethoxy[1,1′-biphenyl]-4-yl)carbonyl]-N-methyl-N-(1-methyl-4-piperidinyl)-10,11-dihydro-5H-pyrrolo[2,1-c][1,4]benzodiazepine-3-carboxamide] | 18 |
| COc1ccccc1-c1ccc(C(=O)N2Cc3ccc(C(=O)N4CCN(CCN5CCOCC5)CC4)n3Cc3ccccc32)cc1OC [Example 214, {10-[(2,2′-Dimethoxy[1,1′-biphenyl]-4-yl)carbonyl]-10,11-dihydro-5H-pyrrolo[2,1-c][1,4]benzodiazepin-3-yl}{4-[2-(4-morpholinyl)ethyl]-1-piperazinyl}methanone] | 11 |
| COc1cccc(-c2cc(OC)c(C(=O)N3Cc4ccc(C(=O)N(C)C5CCN(C)C5)n4Cc4ccccc43)cc2Cl)c1 (stereo not shown) [Example 191, 10-[(6-Chloro-3,3′-dimethoxy[1,1′-biphenyl]-4-yl)carbonyl]-N-methyl-N-(1-methyl-3-pyrrolidinyl)-10,11-dihydro-5H-pyrrolo[2,1-c][1,4]benzodiazepine-3-carboxamide] | 17 |
| C=CCN1CCN(C(=O)c2ccc3n2Cc2ccccc2N(C(=O)c2cc(Cl)c(-c4cccc(OC)c4)cc2OC)C3)CC1 [Example 226, (4-Allyl-1-piperazinyl){10-[(6-chloro-3,3′-dimethoxy[1,1′-biphenyl]-4-yl)carbonyl]-10,11-dihydro-5H-pyrrolo[2,1-c][1,4]benzodiazepin-3-yl}methanone] | 10 |
| COc1cc(C(=O)N2Cc3ccc(C(=O)N(C)C4CCN(C)C4)n3Cc3ccccc32)ccc1-c1ccccc1C (stereo not shown) [Example 189, 10-[(2-Methoxy-2′-methyl[1,1′-biphenyl]-4-yl)carbonyl]-N-methyl-N-(1-methyl-3-pyrrolidinyl)-10,11-dihydro-5H-pyrrolo[2,1-c][1,4]benzodiazepine-3-carboxamide] | 22 |
| COc1cc(-c2ccccc2C(F)(F)F)c(Cl)cc1C(=O)N1Cc2ccc(C(=O)O)n2Cc2ccccc21 [Example 15, 10-{[6-Chloro-3-methoxy-2′-trifluoromethyl-[1,1′-biphenyl]-4-yl]carbonyl}-10,11-dihydro-5H-pyrrolo[2,1-c][1,4]benzodiazepine-3-carboxylic acid] | 27 |
| COc1cccc(-c2cc(OC)c(C(=O)N3Cc4ccc(C(=O)NCCN5CCCCC5)n4Cc4ccccc43)cc2Cl)c1 [Example 156, 10-[(6-Chloro-3,3′-dimethoxy[1,1′-biphenyl]-4-yl)carbonyl]-N-[2-(1-piperidinyl)ethyl]-10,11-dihydro-5H-pyrrolo[2,1-c][1,4]benzodiazepine-3-carboxamide] | 12 |
| COc1cccc(-c2ccc(C(=O)N3Cc4ccc(C(=O)N(C)C5CCN(C)C5)n4Cc4ccccc43)cc2C)c1 (stereo not shown) [Example 186, 10-[(3′-Methoxy-2-methyl[1,1′-biphenyl]-4-yl)carbonyl]-N-methyl-N-(1-methyl-3-pyrrolidinyl)-10,11-dihydro-5H-pyrrolo[2,1-c][1,4]benzodiazepine-3-carboxamide] | 8 |
| COc1cccc(-c2ccc(C(=O)N3Cc4ccc(C(=O)N5CCN(CCN6CCOCC6)CC5)n4Cc4ccccc43)cc2OC)c1 [Example 211, {10-[(2,3′-Dimethoxy[1,1′-biphenyl]-4-yl)carbonyl]-10,11-dihydro-5H-pyrrolo[2,1-c][1,4]benzodiazepin-3-yl}{4-[2-(4-morpholinyl)ethyl]-1-piperazinyl}methanone] | 23 |
| C=CCN1CCN(C(=O)c2ccc3n2Cc2ccccc2N(C(=O)c2ccc(-c4cccc(OC)c4)c(OC)c2)C3)CC1 [Example 228, (4-Allyl-1-piperazinyl){10-[(2,3′-dimethoxy[1,1′-biphenyl]-4-yl)carbonyl]-10,11-dihydro-5H -pyrrolo[2,1-c][1,4]benzodiazepin-3-yl}methanone] | 20 |
| Cc1cc(C(=O)N2Cc3ccc(C(=O)N4CCN(CCN5CCOCC5)CC4)n3Cc3ccccc32)ccc1-c1ccccc1C(F)(F)F [Example 216, (10-{[2-Methyl-2′-(trifluoromethyl)[1,1′-biphenyl]-4-yl]carbonyl}-10,11-dihydro-5H -pyrrolo[2,1-c][1,4]benzodiazepin-3-yl){4-[2-(4-morpholinyl)ethyl]-1-piperazinyl}methanone] | 0 |
| COc1cc(C(=O)N2Cc3ccc(C(=O)N(C)C4CCN(C)CC4)n3Cc3ccccc32)ccc1-c1ccccc1C [Example 179, 10-[(2-Methoxy-2′-methyl[1,1′-biphenyl]-4-yl)carbonyl]-N-methyl-N-(1-methyl-4-piperidinyl)-10,11-dihydro-5H-pyrrolo[2,1-c][1,4]benzodiazepine-3-carboxamide] | 23 |
| COc1cccc(-c2cc(OC)c(C(=O)N3Cc4ccc(C(=O)N(C)C5CCN(C)CC5)n4Cc4ccccc43)cc2Cl)c1 [Example 181, 10-[(6-Chloro-3,3′-dimethoxy[1,1′-biphenyl]-4-yl)carbonyl]-N-methyl-N-(1-methyl4-piperidinyl)-10,11-dihydro-5H-pyrrolo[2,1-c][1,4]benzodiazepine-3-carboxamide] | 12 |
| COc1cc(-c2ccccc2C)c(Cl)cc1C(=O)N1Cc2ccc(C(=O)N(C)C3CCN(C)C3)n2Cc2ccccc21 (stereo not shown) [Example 190, 10-[(6-Chloro-3-methoxy-2′-methyl[1,1′-biphenyl]-4-yl)carbonyl]-N-methyl-N-(1-methyl-3-pyrrolidinyl)-10,11-dihydro-5H-pyrrolo[2,1-c][1,4]benzodiazepine-3-carboxamide] | 9 |
| COc1cc(C(=O)N2Cc3ccc(C(=O)N4CCN(CCN5CCOCC5)CC4)n3Cc3ccccc32)ccc1-c1cccc2ccccc12 [Example 213, {10-[3-Methoxy-4-(1-naphthyl)benzoyl]-10,11-dihydro-5H-pyrrolo[2,1-c][1,4]benzodiazepin-3-yl}{4-[2-(4-morpholinyl)ethyl]-1-piperazinyl}methanone] | 33 |

Other lines, results leading:

| inhibition at 0.1 µM [%] | Compound |
| --- | --- |
| 17 | COc1cccc(-c2ccc(C(=O)N3Cc4ccc(C(=O)N5CCN(C(C)C)CC5)n4Cc4ccccc43)cc2C)c1 [Example 235, (4-Isopropyl-1-piperazinyl){10-[(3′-methoxy-2-methyl[1,1′-biphenyl]-4-yl)carbonyl]-10,11-dihydro-5H-pyrrolo[2,1-c][1,4]benzodiazepin-3-yl}methanone] |
| 27 | COc1cc(-c2ccccc2C)c(Cl)cc1C(=O)N1Cc2ccc(C(=O)N3CCN(C(C)C)CC3)n2Cc2ccccc21 [Example 238, {10-[(6-Chloro-3-methoxy-2′-methyl[1,1′-biphenyl]-4-yl)carbonyl]-10,11-dihydro-5H -pyrrolo[2,1-c][1,4]benzodiazepin-3-yl}(4-isopropyl-1-piperazinyl)methanone] |
| 25 | COc1cccc(-c2ccc(C(=O)N3Cc4ccc(C(=O)N5CCN(C(C)C)CC5)n4Cc4ccccc43)cc2OC)c1 [Example 242, {10-[(2,3′-Dimethoxy[1,1′-biphenyl]-4-yl)carbonyl]-10,11-dihydro-5H-pyrrolo[2,1-c][1,4]benzodiazepin-3-yl}(4-isopropyl-1-piperazinyl)methanone] |
| 23 | Cc1ccccc1-c1ccc(C(=O)N2Cc3ccc(C(=O)N4CCN(CCN5CCOCC5)CC4)n3Cc3ccccc32)cc1C [Example 218, {10-[(2,2′-Dimethyl[1,1′-biphenyl]-4-yl)carbonyl]-10,11-dihydro-5H-pyrrolo[2,1-c][1,4]benzodiazepin-3-yl}{4-[2-(4-morpholinyl)ethyl]-1-piperazinyl}methanone] |
| 23 | Cc1ccccc1-c1ccc(C(=O)N2Cc3ccc(C(=O)N4CCN(C(C)C)CC4)n3Cc3ccccc32)cc1C [Example 233, {10-[(2,2′-Dimethyl[1,1′-biphenyl]-4-yl)carbonyl]-10,11-dihydro-5H-pyrrolo[2,1-c][1,4]benzodiazepin-3-yl}(4-isopropyl-1-piperazinyl)methanone] |
| 4 | COc1ccccc1-c1ccc(C(=O)N2Cc3ccc(C(=O)N4CCN(C(C)C)CC4)n3Cc3ccccc32)cc1C [Example 232, (4-Isopropyl-1-piperazinyl){10-[(2′-methoxy-2-methyl[1,1′-biphenyl]-4-yl)carbonyl]-10,11-dihydro-5H-pyrrolo[2,1-c][1,4]benzodiazepin-3-yl}methanone] |
| 1 | C=CCN1CCN(C(=O)c2ccc3n2Cc2ccccc2N(C(=O)c2ccc(-c4ccccc4OC)c(C)c2)C3)CC1 [Example 222, (4-Allyl-1-piperazinyl){10-[(2′-methoxy-2-methyl[1,1′-biphenyl]-4-yl)carbonyl]-10,11-dihydro-5H-pyrrolo[2,1-c][1,4]benzodiazepin-3-yl}methanone] |
| 22 | COc1ccccc1-c1ccc(C(=O)N2Cc3ccc(C(=O)N4CCN(C(C)C)CC4)n3Cc3ccccc32)cc1 [Example 234, (4-Isopropyl-1-piperazinyl){10-[(2′-methoxy[1,1′-biphenyl]-4-yl)carbonyl]-10,11-dihydro-5H-pyrrolo[2,1-c][1,4]benzodiazepin-3-yl}methanone] |
